Results taken from patent publication US8299048B2, “Hexahydrocyclopentyl[f]indazole sulfonamides and derivatives thereof as selective glucocorticoid receptor modulators” (Merck Sharp & Dohme Corp., priority 2008, dated 2012).

Biological target: T1, human GR (Homo sapiens, UniProt P04150)
T1 sequence (P04150 1-777): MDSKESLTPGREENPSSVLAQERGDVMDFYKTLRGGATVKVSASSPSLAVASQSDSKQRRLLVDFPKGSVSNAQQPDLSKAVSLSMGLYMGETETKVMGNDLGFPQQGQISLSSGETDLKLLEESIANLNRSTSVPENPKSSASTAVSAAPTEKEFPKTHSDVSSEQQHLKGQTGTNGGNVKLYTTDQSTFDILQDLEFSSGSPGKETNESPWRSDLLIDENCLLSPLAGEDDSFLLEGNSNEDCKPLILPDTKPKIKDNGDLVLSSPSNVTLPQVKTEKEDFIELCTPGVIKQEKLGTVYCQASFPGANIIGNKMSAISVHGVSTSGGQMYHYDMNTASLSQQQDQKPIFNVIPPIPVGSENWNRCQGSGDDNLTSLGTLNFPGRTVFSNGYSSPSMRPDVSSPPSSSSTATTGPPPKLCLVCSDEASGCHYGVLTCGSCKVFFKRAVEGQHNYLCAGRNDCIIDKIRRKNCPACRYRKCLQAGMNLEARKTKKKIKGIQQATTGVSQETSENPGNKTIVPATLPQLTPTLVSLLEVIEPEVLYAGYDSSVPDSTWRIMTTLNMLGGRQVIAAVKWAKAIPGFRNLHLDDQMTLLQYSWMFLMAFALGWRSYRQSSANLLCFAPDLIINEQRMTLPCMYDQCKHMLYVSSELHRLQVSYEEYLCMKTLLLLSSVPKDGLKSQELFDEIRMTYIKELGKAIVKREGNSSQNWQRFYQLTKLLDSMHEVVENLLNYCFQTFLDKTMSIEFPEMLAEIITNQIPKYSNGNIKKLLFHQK
Assay: Trans-Activation Modulation of Glucocorticoid Receptor (GRAMMER), MMTV-LUC reporter, agonist mode
Assay type: cell-based
Set-up: endogenous in cells
Conditions: for Emax: A549, A549 cells, maximum activity, read-out: Transactivation A549 Cells GRAMMER Emax; for EC50: A549 cells, inflection point, read-out: Transactivation A549 Cells GRAMMER IP
Summary of the method: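 Readout is luciferase from a modified MMTV LTR promoter after 24 h compound exposure alongside 10 nM dexamethasone (100% activity reference), DMSO ≤1%.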

SMILES: C[C@]12Cc3cnn(-c4ccc(F)cc4)c3C=C1CC[C@@H]2CN(CC1CC1)S(=O)(=O)/C=C/c1ccccc1 [Example 13, (E)-N-(cyclopropylmethyl)-N-{[(4αR,5S)-1-(4-fluorophenyl)-4α-methyl-1,4,4α,5,6,7-hexahydrocyclopenta[f]indazol-5-yl]methyl}-2-phenylethylenesulfonamide]
- Emax: 8.3%
- EC50: 82.9 nM

SMILES: CNC(=O)Nc1ccc(S(=O)(=O)N(CC2CC2)C[C@H]2CCC3=Cc4c(cnn4-c4ccc(F)cc4)C[C@@]32C)c(Cl)c1 [Example 14, 2-chloro-N-(cyclopropylmethyl)-N-{[(4αR,5S)-1-(4-fluorophenyl)-4α-methyl-1,4,4α,5,6,7-hexahydrocyclopenta[f]indazol-5-yl]methyl}-4-{[(methylamino)carbonyl]amino}-benzenesulfonamide]
- Emax: 25.2%
- EC50: 344 nM

SMILES: C[C@]12Cc3cnn(-c4ccc(F)cc4)c3C=C1CC[C@@H]2CN(CC1CC1)S(=O)(=O)c1ccc(F)c(Cl)c1 [Example 15, 3-chloro-N-(cyclopropylmethyl)-4-fluoro-N-{[(4αR,5S)-1-(4-fluorophenyl)-4α-methyl-1,4,4α,5,6,7-hexahydrocyclopenta[f]indazol-5-yl]methyl}benzenesulfonamide]
- Emax: 27.6%
- EC50: 292 nM

SMILES: C[C@]12Cc3cnn(-c4ccc(F)cc4)c3C=C1CC[C@@H]2CN(CCC#N)S(=O)(=O)c1ccccc1F [Example 16, N-(2-cyanoethyl)-2-fluoro-N-{[(4αR,5S)-1-(4-fluorophenyl)-4α-methyl-1,4,4α,5,6,7-hexahydrocyclopenta[f]indazol-5-yl]methyl}benzenesulfonamide]
- Emax: 53%
- EC50: 254 nM

SMILES: C[C@]12Cc3cnn(-c4ccc(F)cc4)c3C=C1CC[C@@H]2CN(CCO)S(=O)(=O)c1ccccc1F [Example 17, 2-fluoro-N-{[(4αR,5S)-1-(4-fluorophenyl)-4α-methyl-1,4,4α,5,6,7-hexahydrocyclopenta[f]indazol-5-yl]methyl}-N-(2-hydroxyethyl)benzenesulfonamide]
- Emax: 37.3%
- EC50: 220 nM

SMILES: COC(=O)c1ccccc1S(=O)(=O)N(CC1CC1)C[C@H]1CCC2=Cc3c(cnn3-c3ccc(F)cc3)C[C@@]21C [Example 18, methyl 2-[((cyclopropylmethyl){[(4αR,5S)-1-(4-fluorophenyl)-4α-methyl-1,4,4α,5,6,7-hexahydrocyclopenta[f]indazol-5 yl]methyl}amino)sulfonyl]benzoate]
- Emax: 20%
- EC50: 394 nM

SMILES: C[C@]12Cc3cnn(-c4ccc(F)cc4)c3C=C1CC[C@@H]2CN(CCO)S(=O)(=O)c1ccc(F)c(Cl)c1 [Example 19, 3-chloro-4-fluoro-N-{[(4αR,5S)-1-(4-fluorophenyl)-4α-methyl-1,4,4α,5,6,7-hexahydrocyclopenta[f]indazol-5-yl]methyl}-N-(2-hydroxyethyl)benzenesulfonamide]
- Emax: 20.6%
- EC50: 1190 nM

SMILES: C[C@]12Cc3cnn(-c4ccc(F)cc4)c3C=C1CC[C@@H]2CN(CC#N)S(=O)(=O)c1ccc(F)c(Cl)c1 [Example 20, 3-chloro-N-(cyanomethyl)-4-fluoro-N-{[(4αR,5S)-1-(4-fluorophenyl)-4α-methyl-1,4,4α,5,6,7-hexahydrocyclopenta[f]indazol-5-yl]methyl}benzenesulfonamide]
- Emax: 68.1%
- EC50: 910 nM

SMILES: C[C@]12Cc3cnn(-c4ccc(F)cc4)c3C=C1CC[C@@H]2CN(CC1CC1)S(=O)(=O)Cc1ccccc1 [Example 21, N-(cyclopropylmethyl)-N-{[(4αR,5S)-1-(4-fluorophenyl)-4α-methyl-1,4,4α,5,6,7-hexahydrocyclopenta[f]indazol-5-yl]methyl}-1-phenylmethanesulfonamide]
- Emax: 33.5%
- EC50: 519 nM

SMILES: Cc1oncc1S(=O)(=O)N(CC#N)C[C@H]1CCC2=Cc3c(cnn3-c3ccc(F)cc3)C[C@@]21C [Example 23, N-(cyanomethyl)-N-{[(4αR,5S)-1-(4-fluorophenyl)-4α-methyl-1,4,4α,5,6,7-hexahydrocyclopenta[f]indazol-5-yl]methyl}-5-methylisoxazole-4-sulfonamide]
- Emax: 2.7%
- EC50: 8790 nM

SMILES: C[C@]12Cc3cnn(-c4ccc(F)cc4)c3C=C1CC[C@@H]2CN(CC#N)S(=O)(=O)c1cc(Cl)c(Cl)s1 [Example 24, 4,5-dichloro-N-(cyanomethyl)-N-{[(4αR,5S)-1-(4-fluorophenyl)-4α-methyl-1,4,4α,5,6,7-hexahydrocyclopenta[f]indazol-5-yl]methyl}thiophene-2-sulfonamide]
- Emax: 10.5%
- EC50: 845 nM

SMILES: C[C@]12Cc3cnn(-c4ccc(F)cc4)c3C=C1CC[C@@H]2CN(CC#N)S(=O)(=O)c1ccc(F)c(F)c1 [Example 25, N-(cyanomethyl)-3,4-difluoro-N-{[(4αR,5S)-1-(4-fluorophenyl)-4α-methyl-1,4,4α,5,6,7-hexahydrocyclopenta[f]indazol-5-yl]methyl}benzenesulfonamide]
- Emax: 76.4%
- EC50: 453 nM

SMILES: C[C@]12Cc3cnn(-c4ccc(F)cc4)c3C=C1CC[C@@H]2CN(CC#N)S(=O)(=O)c1cccc(Cl)c1Cl [Example 26, 2,3-dichloro-N-(cyanomethyl)-N-{[(4αR,5S)-1-(4-fluorophenyl)-4α-methyl-1,4,4α,5,6,7-hexahydrocyclopenta[f]indazol-5-yl]methyl}benzenesulfonamide]
- Emax: 5.8%
- EC50: 939 nM

SMILES: C[C@]12Cc3cnn(-c4ccc(F)cc4)c3C=C1CC[C@@H]2CN(CC#N)S(=O)(=O)c1ccc(Cl)c(C(F)(F)F)c1 [Example 27, 4-chloro-N-(cyanomethyl)-N-{[(4αR,5S)-1-(4-fluorophenyl)-4α-methyl-1,4,4α,5,6,7-hexahydrocyclopenta[f]indazol-5-yl]methyl}-3-(trifluoromethyl)benzenesulfonamide]
- Emax: 3%
- EC50: 994 nM

SMILES: C[C@]12Cc3cnn(-c4ccc(F)cc4)c3C=C1CC[C@@H]2CN(CC#N)S(=O)(=O)c1ccc(C#N)cc1 [Example 28, 4-cyano-N-(cyanomethyl)-N-{[(4αR,5S)-1-(4-fluorophenyl)-4α-methyl-1,4,4α,5,6,7-hexahydrocyclopenta[f]indazol-5-yl]methyl}benzenesulfonamide]
- Emax: 44%
- EC50: 483 nM

SMILES: Cc1cc(S(=O)(=O)N(CC#N)C[C@H]2CCC3=Cc4c(cnn4-c4ccc(F)cc4)C[C@@]32C)c(C)cc1Cl [Example 29, 4-chloro-N-(cyanomethyl)-N-{[(4αR,5S)-1-(4-fluorophenyl)-4α-methyl-1,4,4α,5,6,7-hexahydrocyclopenta[f]indazol-5-yl]methyl}-2,5-dimethylbenzenesulfonamide]
- Emax: 4.7%
- EC50: 1710 nM

SMILES: C[C@]12Cc3cnn(-c4ccc(F)cc4)c3C=C1CC[C@@H]2CN(CC#N)S(=O)(=O)Cc1cccc(C(F)(F)F)c1 [Example 30, N-(cyanomethyl)-N-{[(4αR,5S)-1-(4-fluorophenyl}-4α-methyl-1,4,4α,5,6,7-hexahydrocyclopenta[f]indazol-5-yl]methyl}-1-[3-(trifluoromethyl)phenyl]methanesulfonamide]
- Emax: 3.5%
- EC50: 1640 nM

SMILES: Cc1ccc(S(=O)(=O)N(CC#N)C[C@H]2CCC3=Cc4c(cnn4-c4ccc(F)cc4)C[C@@]32C)s1 [Example 31, N-(cyanomethyl)-N-{[(4αR,5S)-1-(4-fluorophenyl}-4α-methyl-1,4,4α,5,6,7-hexahydrocyclopenta[f]indazol-5-yl]methyl}-5-methylthiophene-2-sulfonamide]
- Emax: 20.7%
- EC50: 833 nM

SMILES: Cn1cc(S(=O)(=O)N(CC#N)C[C@H]2CCC3=Cc4c(cnn4-c4ccc(F)cc4)C[C@@]32C)c(C(F)(F)F)n1 [Example 32, N-(cyanomethyl)-N-{[(4αR,5S)-1-(4-fluorophenyl}-4α-methyl-1,4,4α,5,6,7-hexahydrocyclopenta[f]indazol-5-yl]methyl}-1-methyl-3-(trifluoromethyl)-1H-pyrazole-4-sulfonamide]
- Emax: 29.4%
- EC50: 868 nM

SMILES: Cc1cc(S(=O)(=O)N(CC#N)C[C@H]2CCC3=Cc4c(cnn4-c4ccc(F)cc4)C[C@@]32C)c(C)o1 [Example 33, (4αR,5S)-5-({(cyanomethyl)[(2,5-dimethyl-3-furyl)sulfonyl]amino}methyl)-1-(4-fluorophenyl)-4α-methyl-1,4,4α,5,6,7-hexahydrocyclopenta[f]indazol-2-ium]
- Emax: 15.2%
- EC50: 1050 nM

SMILES: COC(=O)c1sccc1S(=O)(=O)N(CC#N)C[C@H]1CCC2=Cc3c(cnn3-c3ccc(F)cc3)C[C@@]21C [Example 34, methyl 3-[((cyanomethyl){[(4αR,5S)-1-(4-fluorophenyl)-4α-methyl-1,4,4α,5,6,7-hexahydrocyclopenta[f]indazol-5-yl]methyl}amino)sulfonyl]thiophene-2-carboxylate]
- Emax: 37%
- EC50: 748 nM

SMILES: Cn1nc(C(F)(F)F)cc1-c1ccc(S(=O)(=O)N(CC#N)C[C@H]2CCC3=Cc4c(cnn4-c4ccc(F)cc4)C[C@@]32C)s1 [Example 35]
- Emax: 4.9%
- EC50: 443 nM
